Where a SMILES comes first, the peptide text is derived from it. The star is where a group is joined. Cbz = O=C(OCc1ccccc1)*
Legend:
Format in all cases: cell-based, human
NK-92 cells [1] = assay: Cytotoxicity of MAPK inhibitor-treated NK-92 cells against K562; settings: NK-92 cells treated with 10 mM inhibitor; compared with ERK and p38 inhibitors
Pyk2 [2] = assay: GST pull down of GST-SOCS2 and Flag-Pyk2 in 293T cells; settings: MG132-containing medium vs general culture medium
Description: The GST expression vector and pFlag-Pyk2, or pGST-SOCS2 and pFlag-Pyk2 were cotransformed into 293T cells using Lipofectamin 2000 (Invitrogen, U.S.A.). After 4 hr of transformation, the medium was replaced to a general culture medium or MG132 (proteasome inhibitor)-containing medium, and […], cells were lysed. The each cell lysate was allowed to react with glutathione-sepharose bead (GE Healthcare, U.S.A.) at 4° C. for 4 hr. Western blot analysis was performed by the same method in Example <2-1> using anti-Flag primary antibody (Santa Cruz, U.S.A.) or anti-GST primary antibody (Santa Cruz, U.S.A.).

Pyk2 [3] = assay: Immunoprecipitation of Flag-Pyk2, GST-SOCS2 and HA-ubiquitin in 293T cells; settings: MG132-containing medium vs general culture medium
Description: In order to determine whether SOCS2 inhibits the proteasome-mediated Pyk2 degradation or not, the following experiment was carried out. First of all, pGST-SOCS2, pFlag-Pyk2, and HA-ubiquitin (AddGene) were cotransformed into 293T cells using Lipofectamin 2000. After 4 hr of transformation, the medium was replaced to a general culture medium or MG132 (proteasome inhibitor)-containing medium, and 24 hr later, cells were lysed. The each cell lysate was allowed to react with anti-Flag antibody or anti-GST antibody. The antigen-antibody complexes were precipitated by incubation at 4° C. for 1 day with G-protein-conjugated agarose (Roshe, Switzerland). The immunoprecipitated complexes were washed with 1×PBS. Western blot analysis was performed by the same method in Example <2-1> using anti-GST antibody, anti-Flag antibody, or anti-HA antibody (Santa Cruz, U.S.A.).

NK-92 cells [4] = assay: socs2 mRNA expression by real time PCR in cytokine-treated NK-92 cells
Description: NK cell differentiation is mediated by IL-15 (Interleukin 15) cytokine. To determine whether the SOCS2 upregulation following NK cell differentiation was induced by IL-15, the present inventors experimented on the IL-15-induced SOCS2 upregulation in mature NK cells. The experimented NK-92 human NK cells and primary NK cells live and proliferate in the condition where IL-15 exists. Accordingly, to measure the effect of IL-15, deprivation of IL-15 was carried out by culturing cells in a medium without IL-15 for 24 hr prior to IL-15 treatment, and then the medium was replaced with a medium containing 10 ng/mL IL-15 to make a cell differentiation condition. Real time PCR was carried out with NK-92 cells at 4, 8, 12, and 16th hr after the replacement of the medium using the same method in Example <3-1-1> to measure the amount of socs2 mRNA expression.
Specifically, each NK cell was collected and total RNA was extracted using Trizol Reagent (Invitrogen, U.S.A.). Then, 1 μg of the RNA was reverse transcribed into cDNA using reverse transcriptase superscript II (Invitrogen). […] Concurrently, using GAPDH (Glyceraldehyde-3-phosphate dehydrogenase) as a quantitative control, real time PCR was performed with GAPDH primer pair of Table 2. […]

primary NK cells [5] = assay: socs1, socs2, socs3 mRNA expression by real time PCR in IL-15-stimulated primary NK cells; settings: IL-15 stimulation after deprivation
Description: Deprivation and IL-15 stimulation was carried out with primary NK cells using the same method in Example <2-2>. The amounts of mRNA expression of socs1, socs2 and socs3 were measured by real time PCR. Primers in Table 1 and Table 3 were used.
Specifically, each NK cell was collected and total RNA was extracted using Trizol Reagent (Invitrogen, U.S.A.). Then, 1 μg of the RNA was reverse transcribed into cDNA using reverse transcriptase superscript II (Invitrogen). Using the cDNA as template, real time PCR was performed with the 2×SYBR Premix Ex Taq™ (TaKaRa, Japan) and SOCS2 primer pairs of Table 2 (Exicycler version 2, Bioneer, Republic of Korea). Concurrently, using GAPDH (Glyceraldehyde-3-phosphate dehydrogenase) as a quantitative control, real time PCR was performed with GAPDH primer pair of Table 2. The PCR condition was as follows: denaturation of 10 min at 95° C.; 40 cycles of […], 30 sec at 60° C., and 1 min at 72° C.; and extension of 8 min at 72° C. followed by cooling to room temperature. After analyzing real time PCR data by the comparative CT (2^−ΔΔCt) method which normalizes the amount of socs2 expression of each sample to the amount of GAPDH expression, the relative amount of SOCS2 expression in differentiated NK cells at each day to the amount of socs2 expression in primary NK cells was shown as a graph in FIG. 1(a).

[6] = tested on: NK-92 cells and primary NK cells; assay: SOCS2 protein expression by Western blot after IL-15 stimulation; settings: IL-15 stimulation after deprivation
Description: Each NK cell was lysed in RIPA buffer (50 mM Tris-HCl, pH 7.4, 150 mM NaCl, 0.25% SDS, 1% NP-40, 1 mM EDTA, a protease inhibitor cocktail, and a phosphate inhibitor cocktail) and the concentration of protein present in the whole cell lysate was determined using BCA Protein Assay Kit (Pierce, U.S.A.). 30 μg of each protein sample was resolved using 10 or 12% SDS-PAGE gel and transferred to an Immobilon-P membrane (Millipore Corporation, U.S.A.). The membrane was blocked with 5% skim milk and treated with anti-SOCS2 antibody (Santa Cruz, U.S.A.) as a primary antibody for 1 day at 4° C. HRP-conjugated anti-rabbit secondary antibody (Santa Cruz, U.S.A.) was attached to the primary antibody-treated membrane, and then, Immobilon Western Chemiluminescent HRP Substrate (Milipore Corporation) was added thereto. The membrane was exposed to X-ray film. As quantitative control, the amount of expression of GAPDH was examined using anti-GAPDH primary antibody (Santa Cruz, U.S.A.) by the above method. […]

NK-92 cells [7] = assay: Western blot of SOCS2 and p-Pyk2Tyr402 after IL-15 in NK-92 cells; settings: IL-15 for 6, 12 or 24 hr
Description: (§1) Each NK cell was lysed in RIPA buffer (50 mM Tris-HCl, pH 7.4, 150 mM NaCl, 0.25% SDS, 1% NP-40, 1 mM EDTA, a protease inhibitor cocktail, and a phosphate inhibitor cocktail) and the concentration of protein present in the whole cell lysate was determined using BCA Protein Assay Kit (Pierce, U.S.A.). 30 μg of each protein sample was resolved using 10 or 12% SDS-PAGE gel and transferred to an Immobilon-P membrane (Millipore Corporation, U.S.A.). The membrane was blocked with 5% skim milk and treated with anti-SOCS2 antibody (Santa Cruz, U.S.A.) as a primary antibody for 1 day at 4° C. HRP-conjugated anti-rabbit secondary antibody (Santa Cruz, U.S.A.) was attached to the primary antibody-treated membrane, and then, Immobilon Western Chemiluminescent HRP Substrate (Milipore Corporation) was added thereto. The membrane was exposed to X-ray film. As quantitative control, the amount of expression of GAPDH was examined using anti-GAPDH primary antibody (Santa Cruz, U.S.A.) by the above method.
To assess how SOCS2 which binds with p-Pyk2^Tyr402 in NK cells regulates Pyk2, the following experiment was carried out. With NK-92 cells cultured without or with IL-15 for 6, 12 or 24 hr using the same method in Example <2-2>, Western blot analysis was carried out using the same method in Example <2-1> with anti-SOCS2 antibody, anti-p-Pyk2^Tyr402 antibody, anti-Pyk2 antibody and anti-GAPDH antibody. […]

primary NK cells [8] = assay: Western blot of SOCS2 and p-Pyk2Tyr402 after IL-15 in primary NK cells; settings: primary NK cells with or without IL-15
Description: as §1
NK cells cultured without or with IL-15, Western blot analysis was carried out using the same method in Example <2-1> with anti-SOCS2 antibody, anti-p-Pyk2^Tyr402 antibody, anti-Pyk2 antibody and anti-GAPDH antibody.

Pyk2 [9] = assay: Immunoprecipitation for ubiquitination of Pyk2 after IL-15 in NK-92 cells; settings: NK-92 cells stimulated with IL-15, anti-Pyk2 immunoprecipitation
Description: To determine whether the decrease in p-Pyk2^Tyr402 by SOCS2 expression, confirmed in Example <13> resulted from the ubiquitin-mediated proteasomal degradation of p-Pyk2^Tyr402 by increased SOCS2 by IL-15, the following experiment was carried out. NK-92 cells stimulated with IL-15 as in Example <2-2> were lysed and the cell lysates were allowed to react with anti-Pyk2 antibody. The antigen-antibody complexes were precipitated by incubation at 4° C. for 1 day with G-protein-conjugated agarose. The immunoprecipitated complexes were washed with 1×PBS. Western blot analysis was performed by the same method in Example <2-1> using anti-ubiquitin antibody (Santa Cruz, U.S.A.), anti-SOCS2 antibody, anti-p-Pyk2^Tyr402 antibody, anti-Pyk2 antibody, and anti-GAPDH antibody.

SOCS2 = SOCS2 protein knockdown by siRNA, Western blot; settings: primary NK cells transduced with siRNA, IL-15 stimulation 16 hr
Description: as §1
IL-15 is an essential cytokine for NK cell differentiation. With SOCS2 expression inhibited, the present inventors measured the NK cell differentiation by IL-15 stimulation. […] Concurrently, β-actin expression was also observed by using anti-β-actin primary antibody (Santa Cruz, U.S.A.) as a quantitative control.

primary NK cells [10] = assay: NK cell differentiation, CD-56 expression by FACS; settings: primary NK cells transduced with siRNA, day 2, 3, 5, IL-15 stimulation
Description: Also, to determine whether the inhibition of SOCS2 expression affected the NK cell differentiation or not, primary NK cells were transduced with siRNA and CD-56 expression was measured by performing FACS on the cells at 2, 3, and 5th day.

Oc1c2ccccc2c2c3c(cccc13)N=N2 [JNK inhibitor, SP600125]
cytotoxicity against the K562 cancer cell line (NK-92 cells [1]): most significantly reduced

CC(C)C[C@@H](C=O)NC(=O)[C@H](CC(C)C)NC(=O)[C@H](CC(C)C)NC(=O)OCc1ccccc1 [MG132] (Cbz-Leu-Leu-Leu-aldehyde)
Flag band (Flag-Pyk2) in GST pull down (Pyk2 [2]): significantly large Flag band
GST band and HA (ubiquitin) bands in anti-Flag immunoprecipitate (Pyk2 [3]): significantly large GST band and more HA bands

IL-15: cytokine priming NK cell differentiation (Peprotech)
SOCS2 expression (socs2 mRNA) (NK-92 cells [4]; NK-92 cells deprived of IL-15 24 hr, then 10 ng/mL IL-15, 4, 8, 12, 16 hr): SOCS2 expression increased in NK-92 cells
SOCS2 expression (mRNA), specificity among cytokines (NK-92 cells [4]; deprived NK-92 cells, 30 ng/mL IL7, IL-12, IL-15, IL-18, IL-21 for 16 hr): SOCS2 expression was induced specifically by IL-15 stimulation
mRNA expression of socs1, socs2 and socs3 (primary NK cells [5]): only socs2 mRNA expression among SOCS family members increased
SOCS2 protein expression [6]: IL-15 stimulated SOCS2 expression was observed in both NK-92 cells and primary NK cells
SOCS2 expression (NK-92 cells [7]): increased in an IL-15 stimulation time-dependent manner
phosphorylation of tyrosine 402 in Pyk2 (NK-92 cells [7]): decreased
expression of SOCS2 and phosphorylation of Pyk2 (primary NK cells [8]): induced the expression of SOCS2 and the decrease in the phosphorylation of Pyk2
phosphorylation of Pyk2 (Pyk2 [9]): phosphorylation of Pyk2 decreased
ubiquitination of Pyk2 (Pyk2 [9]): ubiquitination of Pyk2 increased

SOCS2 siRNA: SOCS2 siRNA (Dharmacon, SEQ ID NO.12: 5′-CGACUACUAUGUUCAGAUG-3′) (listed as RNA, chemistry not given here)
SOCS2 protein expression (SOCS2): SOCS2 protein expression was inhibited
CD-56 expression (NK cell differentiation) (primary NK cells [10]): increased CD-56 expression similarly regardless of whether SOCS2 protein was expressed or not

Reference: patent US20120282646A1, “METHOD FOR ACTIVATING A NATURAL KILLER CELL BY ADJUSTING THE EXPRESSION OF THE SOCS2 GENE” (Korea Research Institute of Bioscience and Biotechnology, priority 2009, published 2012)
